Measurements reported in US9060993B2, “Compositions and methods for treating cancer” (The Trustees of the University of Pennsylvania, priority 2003, dated 2015).
pIC50: −log10 of the molar value.

Assays:
ATP citrate lyase = target: T1, ATP citrate lyase (Mus musculus, UniProt Q91V92); assay: ATP citrate lyase activity in cellular extracts (malate dehydrogenase coupled, NADH consumption at 340 nm); format: biochemical; settings: mitogen stimulated cell extracts
T1 construct: is added to mitogen stimulated cell extracts with an IC50 of approximately 3 μM; endogenous in cells; host or cells: IL-3-dependent cell line (FL5.12), mitogen-stimulated; cytosolic extract
T1 sequence (Q91V92 1-1091): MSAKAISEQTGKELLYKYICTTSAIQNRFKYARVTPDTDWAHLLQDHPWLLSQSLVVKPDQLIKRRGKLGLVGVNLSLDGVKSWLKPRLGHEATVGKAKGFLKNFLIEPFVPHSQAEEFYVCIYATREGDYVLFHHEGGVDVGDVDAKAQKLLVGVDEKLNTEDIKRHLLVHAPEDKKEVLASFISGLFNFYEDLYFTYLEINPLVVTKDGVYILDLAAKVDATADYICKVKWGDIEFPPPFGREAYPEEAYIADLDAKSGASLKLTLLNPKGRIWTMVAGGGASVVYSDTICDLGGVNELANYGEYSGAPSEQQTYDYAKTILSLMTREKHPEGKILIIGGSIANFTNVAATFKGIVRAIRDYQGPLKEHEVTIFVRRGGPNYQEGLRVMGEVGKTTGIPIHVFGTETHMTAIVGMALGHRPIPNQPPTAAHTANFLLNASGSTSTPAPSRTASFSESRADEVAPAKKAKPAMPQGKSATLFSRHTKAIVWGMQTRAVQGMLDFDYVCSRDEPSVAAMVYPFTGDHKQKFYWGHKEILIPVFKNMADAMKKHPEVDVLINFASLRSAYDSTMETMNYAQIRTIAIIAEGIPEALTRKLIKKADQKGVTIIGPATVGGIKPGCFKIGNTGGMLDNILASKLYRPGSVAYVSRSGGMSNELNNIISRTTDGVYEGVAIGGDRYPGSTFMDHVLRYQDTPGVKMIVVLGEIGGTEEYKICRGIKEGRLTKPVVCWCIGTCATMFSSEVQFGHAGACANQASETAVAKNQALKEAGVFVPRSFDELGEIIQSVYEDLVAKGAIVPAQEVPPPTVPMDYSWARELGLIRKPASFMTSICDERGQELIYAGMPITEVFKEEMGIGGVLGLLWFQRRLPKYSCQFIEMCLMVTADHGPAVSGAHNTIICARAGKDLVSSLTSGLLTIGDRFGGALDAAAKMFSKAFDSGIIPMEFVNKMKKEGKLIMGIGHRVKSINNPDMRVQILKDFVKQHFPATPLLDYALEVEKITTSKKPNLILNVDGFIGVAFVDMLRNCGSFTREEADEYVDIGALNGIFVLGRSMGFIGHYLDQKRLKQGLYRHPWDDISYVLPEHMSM
Procedure: To investigate the potential induction of ATP citrate lyase in response to mitogen stimulation of cell proliferation, an assay was developed to quantitate ATP citrate lyase (ACL) activity in cellular extracts. As a positive control, stable transfectants of a cell line dependent on IL-3 for the induction of cell proliferation was also produced. The cytosolic extracts from the wild type cells and ATP citrate lyase transfected cells were analyzed by determining the level of ATP citrate lyase activity per 10^6 cells as determined by the malate dehydrogenase catalyzed reduction of oxaloacetate by NADH. NADH consumption was measured by monitoring the reaction at 340 nm. Assays were run by providing citrate at 100 μM in the presence of 5 mM ATP and 300 μM of CoA.

FL5.12 cells = assay: Cell proliferation and survival of IL-3 stimulated FL5.12 cells in culture; format: cell-based
Procedure: As a result, we have investigated the ability of hydroxycitrate to inhibit the proliferative response of FL5.12 cells stimulated by interleukin-3. […] The IC50 of this effect approximates the efficacy of hydroxycitrate in inhibiting ACL-dependent fatty acid synthesis as reported by others (Pearce et al. 1998).
(§1) When 3-carbox-11-(2,4-dichlorophenyl)-3,5dihydroxyundecanoic acid (see FIG. 4 for structures) is added to mitogen stimulated cell extracts with an IC50 of approximately 3 μM and when cells were treated with a γ-lactone derivative that is cell permeant, the cell proliferation was inhibited at approximately a 10 μM concentration and both cell proliferation and cell survival were inhibited at 30 μM concentrations (FIG. 6).

[1] = test system: cells transfected with the oncogene Bcl-xL; assay: Proliferation and cell death of Bcl-xL-transfected cells in presence or absence of the mitogen IL-3; format: cell-based; settings: 30 μM, FIG. 11
[2] = test system: hematopoietic IL3-dependent cell lines; assay: In vitro apoptosis assay (Annexin V / propidium iodide flow cytometry); format: cell-based; settings: 30 μM; FIG. 9
Procedure: Remove 500 μl of treated or untreated cells (at concentrations of 0.5-1×10^6 cells/ml) to a FACS tube and add 50 μl of 10× Annexin V binding buffer (BD Biosciences Pharmingen, San Diego, Calif.) to each tube. Stain cells with Annexin V-FITC (BD Biosciences Phanningen, San Diego, Calif. ) using 4 μl Annexin V-FITC and propidium iodide (Molecular Probes, Eugene, Oreg.) at a final concentration of 3 μg/ml of cells. The cells are preferably hematopoietic IL3-dependent cell lines such as for example IL3-dependent FL5.12 pro-B cells transfected with different transgenes (Bcl-xL, myrAkt) or vector control plasmids and IL3-dependent cells isolated from the bone marrow of Bax−/−Bak−/− knockout mice. Incubate at 37° for 30 minutes. Perform flow cytometry. Early apoptotic cells are Annexin V positive, propidium iodide negative while late apoptotic cells are both Annexin V and propidium iodide positive.
as §1

[3] = test system: mitogen-stimulated cells and proliferating transformed cell cultures; assay: Cell cycle analysis of mitogen-stimulated cells and proliferating transformed cell cultures; format: cell-based; settings: 30 μM; FIG. 8
Procedure: as §1

[4] = test system: Bax/Bak-deficient, IL-3-dependent cell lines; assay: Mitogen-induced cell growth of Bax/Bak-deficient, IL-3-dependent cell lines; format: cell-based, mice; settings: 30 μM, resting cells treated with IL-3; FIG. 14

O=C(O)CC(O)(CC(O)CCCCCCc1ccc(Cl)cc1Cl)C(=O)O (centres unmarked) [3-carbox-11-(2,4-dichlorophenyl)-3,5dihydroxyundecanoic acid] showed a pIC50 (ATP citrate lyase) of ~5.52.

With O=C(O)CC(O)(C(=O)O)C(O)C(=O)O (centres unmarked) [hydroxycitrate] the “overall cell number and viability of cells in culture” value (FL5.12 cells; added to IL-3-containing cultures of FL5.12, FIG. 3) was “progressive decline in the overall cell number and viability”.

In the case of O=C(O)C[C@@]1(O)C[C@@H](CCCCCCc2ccc(Cl)cc2Cl)OC1=O [γ-lactone derivative], the “concentration at which both cell proliferation and cell survival were inhibited” value (FL5.12 cells; FIG. 6) was 30 µM, the “concentration at which cell proliferation was inhibited” value (FL5.12 cells; cells treated with cell permeant γ-lactone, FIG. 6) was ~10 µM and the “inhibition of cell proliferation in each independent cell clone” value (FL5.12 cells; immortalized hematopoietic cells, independent clones, doses between 10 and 30 μM, FIG. 7) was “approximately 50%”. The cell death ([1]; in presence of IL-3) was “induction of apoptotic cell death”, the mitogen-induced cell proliferation ([1]; in presence of IL-3) was “near complete inhibition” and the “toxicity in nongrowing cells” value ([1]; nongrowing cells (IL-3 withdrawal)) was “relatively nontoxic”. For the same compound, the “annexin-V positivity (induction of apoptosis)” value [2] was “rapid induction of the annexin-V positivity”, the cell cycle effect [3] was “G1 arrest” and the mitogen-induced cell growth [4] was “nearly completely inhibited”.
